In US11142515B2, “Pyrazolyl-ureas as kinase inhibitors” (RESPIVERT LIMITED, priority 2014, dated 2021):

How the values were obtained:
[1] = target: T1, p38MAPKγ (MAPK12) (Homo sapiens, UniProt P53778); test: p38 MAPKγ enzyme inhibition (Z-LYTE FRET); assay type: biochemical; conditions: Table 2B, unit inferred; read-out: p38 MAPKγ (Enzyme Profile)
T1 construct: purchased Life Technologies
T1 sequence (P53778 1-367): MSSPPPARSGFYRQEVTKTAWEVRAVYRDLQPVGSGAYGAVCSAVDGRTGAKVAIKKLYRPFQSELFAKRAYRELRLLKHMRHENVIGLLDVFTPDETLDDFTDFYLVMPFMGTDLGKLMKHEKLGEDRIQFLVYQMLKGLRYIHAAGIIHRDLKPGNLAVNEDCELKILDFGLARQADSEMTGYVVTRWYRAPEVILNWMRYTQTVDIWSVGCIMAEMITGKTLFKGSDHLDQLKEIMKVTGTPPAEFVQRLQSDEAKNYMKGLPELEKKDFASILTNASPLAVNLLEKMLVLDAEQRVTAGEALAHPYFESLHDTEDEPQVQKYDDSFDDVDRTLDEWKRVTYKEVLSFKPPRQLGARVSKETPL
In short: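 Enzyme (added at 800 ng/mL) was preincubated 2 h at RT with compound (solutions of 40 to 0.0012 μg/mL), then FRET peptide (8 μM) and ATP (400 μM), both as added, were reacted 1 h at RT. Protease development followed for 1 h; phosphorylation was read as the coumarin/fluorescein emission ratio.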

[2] = target: T2, p38 MAPKα isoform (MAPK14) (Homo sapiens, UniProt Q16539); test: p38 MAPKα enzyme inhibition (Z-LYTE FRET); assay type: biochemical; conditions: Table 2B, unit inferred; read-out: p38 MAPKα (Enzyme Profile)
T2 construct: purchased Life Technologies
T2 sequence (Q16539 whole entry, canonical isoform): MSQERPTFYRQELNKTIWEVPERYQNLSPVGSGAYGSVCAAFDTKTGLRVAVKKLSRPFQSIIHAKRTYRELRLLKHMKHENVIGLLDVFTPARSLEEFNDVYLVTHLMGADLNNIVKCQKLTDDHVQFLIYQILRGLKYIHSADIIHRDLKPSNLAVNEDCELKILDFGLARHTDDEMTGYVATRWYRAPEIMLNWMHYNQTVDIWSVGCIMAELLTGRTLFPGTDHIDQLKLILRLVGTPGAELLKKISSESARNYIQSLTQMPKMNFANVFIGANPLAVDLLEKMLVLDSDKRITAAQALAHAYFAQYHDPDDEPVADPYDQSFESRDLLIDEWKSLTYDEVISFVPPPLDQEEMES
In short: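 Activity was measured indirectly as phosphorylation of a MAPKAP-K2-derived FRET peptide. Enzyme (added at 40 ng/mL) was preincubated 2 h at RT with compound (added solutions 40–0.0012 μg/mL).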

Row | Compound | IC50 [1] [nM] | IC50 [2] [nM]
1 | CCc1cccc(-n2nc(C(C)(C)C)cc2NC(=O)Nc2ccc(OCc3ccnc(Nc4cncc(CC)n4)c3)c3ccccc23)c1 [Example 234, 1-(3-(tert-butyl)-1-(3-ethyl-phenyl)-1H-pyrazol-5-yl)-3-(4-((2-((6-ethylpyrazin-2-yl)amino)pyridin-4-yl)methoxy)naphthalen-1-yl)urea] | > 15600 | 64
2 | Cc1ccc(-n2nc(C(C)(C)C)cc2NC(=O)Nc2ccc(OCc3ccnc(Nc4cnc(C(=O)N5CCCC5)cn4)c3)c3ccccc23)cc1F [Example 235, 1-(3-(tert-butyl)-1-(3-fluoro-4-methylphenyl)-1H-pyrazol-5-yl)-3-(4-((2-((5-(pyrrolidine-1-carbonyl)pyrazin-2-yl)amino)pyridin-4-yl)methoxy)naphthalen-1-yl)urea] | > 14000 | 65
3 | Cc1cc(F)cc(-n2nc(C(C)(C)C)cc2NC(=O)Nc2ccc(OCc3ccnc(Nc4cnc(C(=O)N5CCCC5)cn4)c3)c3ccccc23)c1 [Example 236, 1-(3-(tert-butyl)-1-(3-fluoro-5-methylphenyl)-1H-pyrazol-5-yl)-3-(4-((2-((5-(pyrrolidine-1-carbonyl)pyrazin-2-yl)amino)pyridin-4-yl)methoxy)naphthalen-1-yl)urea] | > 14000 | 42
4 | CC(C)(C)c1cc(NC(=O)Nc2ccc(OCc3ccnc(Nc4cnccn4)c3)c3ccccc23)n(-c2cccc(CCO)c2)n1 [Example 237, 1-(3-(tert-butyl)-1-(3-(2-hydroxyethyl)phenyl)-1H-pyrazol-5-yl)-3-(4-((2-(pyrazin-2-ylamino)pyridin-4-yl)methoxy)naphthalen-1-yl)urea] | 29 | 8.4
5 | CO[C@H]1CCCN(C(=O)c2cnc(Nc3cc(COc4ccc(NC(=O)Nc5cc(C(C)(C)C)nn5-c5ccc(C)cc5)c5ccccc45)ccn3)cn2)C1 [Example 238, (S)-1-(3-(tert-butyl)-1-(p-tolyl)-1H-pyrazol-5-yl)-3-(4-((2-((5-(3-methoxypiperidine-1-carbonyl)pyrazin-2-yl)amino)pyridin-4-yl)methoxy)naphthalen-1-yl)urea] | 151 | 19
6 | CO[C@@H]1CCCN(C(=O)c2cnc(Nc3cc(COc4ccc(NC(=O)Nc5cc(C(C)(C)C)nn5-c5ccc(C)cc5)c5ccccc45)ccn3)cn2)C1 [Example 239, (R)-1-(3-(tert-butyl)-1-(p-tolyl)-1H-pyrazol-5-yl)-3-(4-((2-((5-(3-methoxy-piperidine-1-carbonyl)pyrazin-2-yl)amino)pyridin-4-yl)methoxy)naphthalen-1-yl)urea] | 130 | 14
7 | CC(=O)N1CCN(C(=O)c2cnc(Nc3cc(COc4ccc(NC(=O)Nc5cc(C(C)(C)C)nn5-c5ccc(C)cc5)c5ccccc45)ccn3)cn2)CC1 [Example 240, 1-(4-((2-((5-(4-acetyl-piperazine-1-carbonyl)pyrazin-2-yl)amino)pyridin-4-yl)methoxy)naphthalen-1-yl)-3-(3-(tert-butyl)-1-(p-tolyl)-1H-pyrazol-5-yl)urea] | 80 | 12
8 | Cc1ccc(-n2nc(C(C)(C)C)cc2NC(=O)Nc2ccc(OCc3ccnc(Nc4cnc(C(=O)N5CCNC(=O)CC5)cn4)c3)c3ccccc23)cc1 [Example 241, 1-(3-(tert-butyl)-1-(p-tolyl)-1H-pyrazol-5-yl)-3-(4-((2-((5-(5-oxo-1,4-diazepane-1-carbonyl)pyrazin-2-yl)amino)pyridin-4-yl)methoxy)naphthalen-1-yl)urea] | 48 | 3.4
9 | Cc1ccc(-n2nc(C(C)(C)C)cc2NC(=O)Nc2ccc(OCc3ccnc(Nc4cnc(C(=O)N5CC[C@H](F)C5)cn4)c3)c3ccccc23)cc1 [Example 242, (S)-1-(3-(tert-butyl)-1-(p-tolyl)-1H-pyrazol-5-yl)-3-(4-((2-((5-(3-fluoropyrrolidine-1-carbonyl)pyrazin-2-yl)amino)pyridin-4-yl)methoxy)naphthalen-1-yl)urea] | > 14000 | 19
10 | Cc1ccc(-n2nc(C(C)(C)C)cc2NC(=O)Nc2ccc(OCc3ccnc(Nc4cnc(C(=O)N5CCS(=O)(=O)CC5)cn4)c3)c3ccccc23)cc1 [Example 243, 1-(3-(tert-butyl)-1-(p-tolyl)-1H-pyrazol-5-yl)-3-(4-((2-((5-(1,1-dioxidothiomor-pholine-4-carbonyl)pyrazin-2-yl)amino)pyridin-4-yl)methoxy)naphthalen-1-yl) urea] | 96 | 8.5
11 | Cc1ccc(-n2nc(C(C)(C)C)cc2NC(=O)Nc2ccc(OCc3ccnc(Nc4cnc(C(=O)N5CCN(C)C(=O)C5)cn4)c3)c3ccccc23)cc1 [Example 244, 1-(3-(tert-butyl)-1-(p-tolyl)-1H-pyrazol-5-yl)-3-(4-((2-((5-(4-methyl-3-oxopipera-zine-1-carbonyl)pyrazin-2-yl)amino)pyridin-4-yl)methoxy)naphthalen-1-yl) urea] | 46 | 3
12 | Cc1ccc(-n2nc(C(C)(C)C)cc2NC(=O)Nc2ccc(OCc3ccnc(Nc4cnc(C(=O)N5CC[C@@H](F)C5)cn4)c3)c3ccccc23)cc1 [Example 245, (R)-1-(3-(tert-butyl)-1-(p-tolyl)-1H-pyrazol-5-yl)-3-(4-((2-((5-(3-fluoropyrrolidine-1-carbonyl)pyrazin-2-yl)amino)pyridin-4-yl)methoxy)naphthalen-1-yl)urea] | 1700 | 18
13 | Cc1ccc(-n2nc(C(C)(C)C)cc2NC(=O)Nc2ccc(OCc3ccnc(Nc4cnc(C(=O)N5CCC(F)(F)CC5)cn4)c3)c3ccccc23)cc1 [Example 246, 1-(3-(tert-butyl)-1-(p-tolyl)-1H-pyrazol-5-yl)-3-(4-((2-((5-(4,4-difluoropiperidine-1-carbonyl)pyrazin-2-yl)amino)pyridin-4-yl)methoxy)naphthalen-1-yl)urea] | 3730 | 58
14 | Cc1ccc(-n2nc(C(C)(C)C)cc2NC(=O)Nc2ccc(OCc3ccnc(Nc4cnc(C(=O)N5C[C@H](O)[C@@H](O)C5)cn4)c3)c3ccccc23)cc1 [Example 247, 1-(3-(tert-butyl)-1-(p-tolyl)-1H-pyrazol-5-yl)-3-(4-((2-((5-((3S,4S)-3,4-dihydroxy-pyrrolidine-1-carbonyl)pyrazin-2-yl)amino)pyridin-4-yl)methoxy)naphthalen-1-yl)urea] | 61 | 7
15 | Cc1ccc(-n2nc(C(C)(C)C)cc2NC(=O)Nc2ccc(OCc3ccnc(Nc4cnc(C(=O)N5C[C@@H](O)[C@H](O)C5)cn4)c3)c3ccccc23)cc1 [Example 248, 1-(3-(tert-butyl)-1-(p-tolyl)-1H-pyrazol-5-yl)-3-(4-((2-((5-((3R,4R)-3,4-dihydroxy-pyrrolidine-1-carbonyl)pyrazin-2-yl)amino)pyridin-4-yl)methoxy)naphthalen-1-yl)urea] | 51 | 4.7
16 | Cc1ccc(-n2nc(C(C)(C)C)cc2NC(=O)Nc2ccc(OCc3ccnc(Nc4cnc(C(=O)N5CCNC(=O)C5)cn4)c3)c3ccccc23)cc1 [Example 249, 1-(3-(tert-butyl)-1-(p-tolyl)-1H-pyrazol-5-yl)-3-(4-((2-((5-(3-oxopiperazine-1-carbonyl)pyrazin-2-yl)amino)pyridin-4-yl)methoxy)naphthalen-1-yl)urea] | 46 | 3.6
17 | COc1cc(F)cc(-n2nc(C(C)(C)C)cc2NC(=O)Nc2ccc(OCc3ccnc(Nc4cnc(C(=O)N5CCCC5)cn4)c3)c3ccccc23)c1 [Example 250, 1-(3-(tert-butyl)-1-(3-fluoro-5-methoxyphenyl)-1H-pyrazol-5-yl)-3-(4-((2-((5-(pyrrolidine-1-carbonyl)pyrazin-2-yl)amino)pyridin-4-yl)methoxy)naphthalen-1-yl)urea] | > 13700 | 11
18 | CCc1ccc(-n2nc(C(C)(C)C)cc2NC(=O)Nc2ccc(OCc3ccnc(Nc4cnc(C)c(C)n4)c3)c3ccccc23)cc1 [Example 251, 1-(3-(tert-butyl)-1-(4-ethyl-phenyl)-1H-pyrazol-5-yl)-3-(4-((2-((5,6-dimethylpyrazin-2-yl)amino)pyridin-4-yl)methoxy)naphthalen-1-yl) urea] | > 15600 | 81
19 | COCCc1cccc(-n2nc(C(C)(C)C)cc2NC(=O)Nc2ccc(OCc3ccnc(Nc4cnccn4)c3)c3ccccc23)c1 [Example 257, 1-(3-(tert-butyl)-1-(3-(2-methoxyethyl)phenyl)-1H-pyrazol-5-yl)-3-(4-((2-(pyrazin-2-ylamino)pyridin-4-yl)methoxy)naphthalen-1-yl)urea] | 68 | 12
20 | Cc1ccc(-n2nc(C(C)(C)C)cc2NC(=O)Nc2ccc(OCc3ccnc(Nc4cnc(C(=O)N5CC[C@H](N(C)C)C5)cn4)c3)c3ccccc23)cc1 [Example 258, (S)-1-(3-(tert-butyl)-1-(p-tolyl)-1H-pyrazol-5-yl)-3-(4-((2-((5-(3-(dimethyl-amino)pyrrolidine-1-carbonyl)pyrazin-2-yl)amino)pyridin-4-yl)methoxy)naphthalen-1-yl)urea] | 77 | 2.4
